The values that follow are results of earlier work, collected in patent US20260207569A1, “LPA1 ANTAGONISTS FOR TREATING INTERSTITIAL LUNG DISEASE” (Bristol-Myers Squibb Company, priority 2022, published 2026).

Structures are written as SMILES.

For one series, the system named is patients with IPF. The following applies: cited from earlier work.
The subject of the next series is patients with PPF. The following applies: 52-week study period; cited from earlier work.

Consider `COC(=O)c1ccc2c(c1)NC(=O)/C2=C(\Nc1ccc(N(C)C(=O)CN2CCN(C)CC2)cc1)c1ccccc1` [nintedanib], for which, in the series on patients with IPF, the “Effect on decline in lung function” value is “significantly reduce the decline in lung function”. The “Progression of lung fibrosis (annual rate of decline in FVC) vs placebo” value in the series on patients with PPF is “slower progression of lung fibrosis than those who received placebo”.
As for `Cc1ccc(=O)n(-c2ccccc2)c1` [pirfenidone], in the series with patients with IPF, the “Effect on decline in lung function” value is on record as “significantly reduce the decline in lung function”.
